US7101878B1 (Agouron Pharmaceuticals, Inc., priority 1998, dated 2006)
Where two headings read alike, the source gives them in different places.

Experiments:
rat GnRH receptor = target: T1, rat GnRH receptor (Rattus norvegicus, UniProt P30969); assay: Radioligand binding, 125I-GnRH-A, rat pituitary membranes; set-up: membranes were prepared from rat pituitary; from tissue; host or cells: rat pituitary
T1 sequence (P30969 1-327): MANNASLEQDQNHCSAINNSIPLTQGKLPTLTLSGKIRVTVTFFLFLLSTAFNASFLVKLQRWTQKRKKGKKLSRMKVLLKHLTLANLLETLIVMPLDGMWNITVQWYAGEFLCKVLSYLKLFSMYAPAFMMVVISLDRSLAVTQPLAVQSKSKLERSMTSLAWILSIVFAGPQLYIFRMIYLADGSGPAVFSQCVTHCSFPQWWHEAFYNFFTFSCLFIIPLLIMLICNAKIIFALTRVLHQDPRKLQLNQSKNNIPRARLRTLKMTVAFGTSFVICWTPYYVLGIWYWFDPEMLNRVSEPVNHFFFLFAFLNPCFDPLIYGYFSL
Procedure, shortened: (§1)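 Bound label captured on 0.1% polyethyleneimine-treated GF/C filters, washed three times with PBS, counted. IC50 derived; identical set-up for every species.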

human GnRH receptor = target: T2, human GnRH receptor (Homo sapiens, UniProt P30968); assay: Radioligand binding, 125I-GnRH-A displacement, membranes of HEK 293 cells with human GnRH receptor
T2 construct: expressed in transfected cells; host or cells: HEK 293 (hGnRH-R/293, from Dr. Stuart Sealfon)
T2 sequence (P30968 1-328): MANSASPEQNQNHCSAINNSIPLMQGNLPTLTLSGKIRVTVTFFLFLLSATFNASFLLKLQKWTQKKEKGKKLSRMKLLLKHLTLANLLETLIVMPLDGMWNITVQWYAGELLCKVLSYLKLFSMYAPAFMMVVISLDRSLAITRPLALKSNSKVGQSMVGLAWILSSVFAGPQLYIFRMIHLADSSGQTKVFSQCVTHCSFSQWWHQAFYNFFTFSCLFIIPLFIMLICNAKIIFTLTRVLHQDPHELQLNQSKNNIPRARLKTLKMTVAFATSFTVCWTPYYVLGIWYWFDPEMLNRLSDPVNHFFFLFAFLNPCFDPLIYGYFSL
Procedure, shortened: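 After filtration and PBS washes, bound radioactivity was counted by scintillation and IC50 derived. Identical conditions applied for non-human receptors.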

bovine GnRH receptor = target: T3, bovine GnRH receptor (Bos taurus, UniProt P32236); assay: Radioligand binding, 125I-GnRH-A, bovine pituitary membranes
T3 construct: membranes were prepared from bovine pituitary; from tissue; host or cells: bovine pituitary
T3 sequence (P32236 1-328): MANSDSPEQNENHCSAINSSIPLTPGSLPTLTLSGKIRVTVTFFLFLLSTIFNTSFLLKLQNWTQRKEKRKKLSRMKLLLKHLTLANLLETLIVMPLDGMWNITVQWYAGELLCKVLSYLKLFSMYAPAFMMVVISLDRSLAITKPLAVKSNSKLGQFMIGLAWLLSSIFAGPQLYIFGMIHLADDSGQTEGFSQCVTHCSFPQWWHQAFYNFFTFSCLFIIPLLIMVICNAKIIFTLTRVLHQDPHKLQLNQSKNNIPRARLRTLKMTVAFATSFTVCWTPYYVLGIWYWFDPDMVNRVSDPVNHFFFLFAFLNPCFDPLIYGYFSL
Procedure: All compounds were diluted in 1% DMSO (final assay concentration) in binding assay buffer. […] Reactions were terminated by rapid filtration onto 96-well Packard GF/C filters soaked in 0.1% polyethyleneimine. Filters were washed three times with PBS buffer, dried and counted on a Packard Topcount by liquid scintillation counting.
Assay conditions were identical for assessing compound activities at other species. […] IC50 values for control peptides and test compounds were calculated utilizing GraphPad Prism™ software.
The reaction mixture was vortexed and incubated for 1 min at room temperature. After one min, the mixture was vortexed and allowed to incubate for an additional minute. 2 ml of 0.5 M acetic acid/1% BSA was added to the reaction tube and the mixture was added to a C18 Sep-Pak cartridge. The cartridge was washed with subsequent washes of 5 ml H2O and 5 ml 0.5M acetic acid and then eluted with 5×1 ml of 60% CH3CN/40% 0.5M acetic acid. The eluate was diluted with 3× volume of HPLC buffer A (0.1% TFA in H2O) and loaded onto a C18 column. […] The radioactive fractions (750 ed/fraction) are collected into clean polypropylene tubes containing 100 μl of 10% BSA. Fractions were assessed for biological activity by radioligand binding.

mouse GnRH receptor = target: T4, mouse GnRH receptor (Mus musculus, UniProt Q01776); assay: Radioligand binding, 125I-GnRH-A, 293 cells expressing mouse GnRH receptors
T4 construct: expressed in transfected cells; host or cells: 293 cells
T4 sequence (Q01776 1-327): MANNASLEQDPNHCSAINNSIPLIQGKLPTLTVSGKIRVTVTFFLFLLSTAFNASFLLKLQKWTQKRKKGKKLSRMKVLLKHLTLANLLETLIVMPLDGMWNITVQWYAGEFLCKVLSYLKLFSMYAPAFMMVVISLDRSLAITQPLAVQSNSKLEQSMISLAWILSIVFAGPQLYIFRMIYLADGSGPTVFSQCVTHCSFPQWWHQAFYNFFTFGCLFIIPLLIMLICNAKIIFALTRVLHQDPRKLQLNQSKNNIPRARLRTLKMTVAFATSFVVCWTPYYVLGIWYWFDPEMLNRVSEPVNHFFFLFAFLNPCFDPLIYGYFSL
Procedure, shortened: as §1

[1] = Metabolism rate, pmol/min/mg at 1 μM, human; type: in vitro ADME; conditions: 1 μM compound
[2] = Metabolism rate, pmol/min/mg at 1 μM, rat male; type: in vitro ADME; conditions: 1 μM compound
[3] = Pharmacokinetic studies / bioavailability in rats; type: in vivo, rat; conditions: rat male
[4] = means ± SE of at least three experiments performed in duplicate, read-out: Rat IC50
[5] = means ± SE of at least three experiments performed in duplicate, read-out: Human IC50
[6] = means ± SE of at least three experiments performed in duplicate, read-out: Bovine IC50
[7] = means ± SE of at least three experiments performed in duplicate, read-out: Mouse IC50
[8] = male, rat, plasma, po, 20 mg/kg, p.o. 20 mg/kg, vehicle per footnote (DMSO/cremophor/saline)

Q: With CCNC(=O)[C@@H]1CCCN1C(=O)[C@H](CCCNC(=N)N)NC(=O)[C@H](CC(C)C)NC(=O)[C@@H](C)NC(=O)[C@H](Cc1ccc(O)cc1)NC(=O)[C@H](CO)NC(=O)[C@H](Cc1c[nH]c2ccccc12)NC(=O)[C@H](Cc1c[nH]cn1)NC(=O)[C@@H]1CCC(=O)N1 [GnRH-A, [des-Gly^10,D-Ala^6]GnRH ethylamide, reference compound] as the molecule, how does the IC50 (rat GnRH receptor; [4]) read?
A: 0.49 ± 0.1 nM

Q: And the IC50 (human GnRH receptor; [5])?
A: 0.34 ± 0.06 nM

Q: What about the IC50 (bovine GnRH receptor; [6]) of the same molecule?
A: 0.3 ± 0.05 nM

Q: What about the IC50 (mouse GnRH receptor; [7]) of the same molecule?
A: 0.22 ± 0.03 nM

Q: For COc1cc(OC)c(NC(=O)c2ccc(Cc3c(C)cc(C)cc3C)o2)c(OC)c1 [Compound 168], which “Human pmol/min/mg 1 μM” value [1] is on record?
A: 407 pmol/min/mg

Q: And the IC50 (rat GnRH receptor; read-out: rGnRH IC50)?
A: 130 nM

Q: And the “Rat male pmol/min/mg 1 μM” value [2]?
A: 1087 pmol/min/mg

Q: And the IC50 (human GnRH receptor; read-out: hGnRH IC50)?
A: 230 nM

Q: What about the IC50 (mouse GnRH receptor; read-out: mGnRH IC50) of the same molecule?
A: 130 nM

Q: What about the half-life ([3]; male, rat, plasma, iv, 10 mg/kg) of the same molecule?
A: 1.8 h

Q: And the Cmax [3, 8]?
A: 300 nM

Q: What about the Tmax [3, 8] of the same molecule?
A: 1 h

Q: And the Fp.o. ([3]; p.o. 20 mg/kg, vehicle per footnote (DMSO/cremophor/saline))?
A: 1% (20 mg/kg)^6

Q: What does the source list for Cc1cc2c(cc1Cc1ccc(C(=O)Nc3cccc4ncccc34)o1)C(C)(C)CCC2(C)C [Compound 64]?
A: IC50 (rat GnRH receptor; read-out: rGnRH IC50): 60 nM; IC50 (human GnRH receptor; read-out: hGnRH IC50): 125 nM; IC50 (bovine GnRH receptor; read-out: bGnRH IC50): 380 nM; IC50 (mouse GnRH receptor; read-out: mGnRH IC50): 34 nM

Q: What does the source list for Cc1cc2c(cc1Cc1ccc(C(=O)NCc3cccc(F)c3)o1)C(C)(C)CCC2(C)C [Compound 53]?
A: IC50 (rat GnRH receptor; read-out: rGnRH IC50): 270 nM; IC50 (human GnRH receptor; read-out: hGnRH IC50): 250 nM; IC50 (bovine GnRH receptor; read-out: bGnRH IC50): 2930 nM; IC50 (mouse GnRH receptor; read-out: mGnRH IC50): 630 nM

Q: Which results are given for COc1cccc(CNC(=O)c2ccc(Cc3cc4c(cc3C)C(C)(C)CCC4(C)C)o2)c1OC [Compound 15]?
A: IC50 (rat GnRH receptor; [4]): 70 ± 16 nM; IC50 (human GnRH receptor; [5]): 100 ± 17 nM; IC50 (human GnRH receptor; read-out: hGnRH IC50): 290 nM; IC50 (bovine GnRH receptor; [6]): 1000 ± 240 nM; IC50 (mouse GnRH receptor; [7]): 220 ± 50 nM

Q: For Cc1cc2c(cc1Cc1ccc(C(=O)NCc3cccc(Cl)c3)o1)C(C)(C)CCC2(C)C [Compound 39], which IC50 (rat GnRH receptor; read-out: rGnRH IC50) is on record?
A: 220 nM

Q: What about the IC50 (human GnRH receptor; read-out: hGnRH IC50) of the same molecule?
A: 190 nM

Q: And the IC50 (bovine GnRH receptor; read-out: bGnRH IC50)?
A: 2340 nM

Q: What about the IC50 (mouse GnRH receptor; read-out: mGnRH IC50) of the same molecule?
A: 830 nM

Q: For Cc1ccccc1CNC(=O)c1ccc(Cc2cc3c(cc2C)C(C)(C)CCC3(C)C)o1 [Compound 50], which IC50 (rat GnRH receptor; read-out: rGnRH IC50) is on record?
A: 150 nM

Q: What about the IC50 (human GnRH receptor; read-out: hGnRH IC50) of the same molecule?
A: 230 nM

Q: What about the IC50 (bovine GnRH receptor; read-out: bGnRH IC50) of the same molecule?
A: 1520 nM

Q: What about the IC50 (mouse GnRH receptor; read-out: mGnRH IC50) of the same molecule?
A: 370 nM

Q: With Cc1cc2c(cc1Cc1ccc(C(=O)NCc3cccc(CNc4ccnc(NC[C@@H]5CCCO5)n4)c3)o1)C(C)(C)CCC2(C)C [Compound 176] as the molecule, how does the “Human pmol/min/mg 1 μM” value [1] read?
A: 273 pmol/min/mg

Q: And the IC50 (rat GnRH receptor; read-out: rGnRH IC50)?
A: 3 nM

Q: And the “Rat male pmol/min/mg 1 μM” value [2]?
A: 2341 pmol/min/mg

Q: What about the IC50 (mouse GnRH receptor; read-out: mGnRH IC50) of the same molecule?
A: 4 nM

Q: What about the T1/2 [3] of the same molecule?
A: 2.8 h

Q: For Cc1cc2c(cc1Cc1ccc(C(=O)NCc3cccc(CNc4ncc(C)c(NCC5CCCO5)n4)c3)o1)C(C)(C)CCC2(C)C (stereo not shown) [Compound 151], which “Human pmol/min/mg 1 μM” value [1] is on record?
A: 225 pmol/min/mg

Q: What about the IC50 (rat GnRH receptor; read-out: rGnRH IC50) of the same molecule?
A: 7.2 nM

Q: And the “Rat male pmol/min/mg 1 μM” value [2]?
A: 3043 pmol/min/mg

Q: And the IC50 (human GnRH receptor; read-out: hGnRH IC50)?
A: 65 nM

Q: What about the IC50 (mouse GnRH receptor; read-out: mGnRH IC50) of the same molecule?
A: 5.2 nM

Q: With Cc1cc2c(cc1Cc1ccc(C(=O)NCc3cccc(CNC(=N)N)c3)o1)C(C)(C)CCC2(C)C [Compound 24] as the molecule, how does the IC50 (rat GnRH receptor; read-out: rGnRH IC50) read?
A: 150 nM

Q: And the IC50 (human GnRH receptor; read-out: hGnRH IC50)?
A: 550 nM

Q: What about the IC50 (bovine GnRH receptor; read-out: bGnRH IC50) of the same molecule?
A: 760 nM

Q: And the IC50 (mouse GnRH receptor; read-out: mGnRH IC50)?
A: 560 nM

Q: What does the source list for Cc1cc2c(cc1Cc1ccc(C(=O)NCc3ccc(F)cc3F)o1)C(C)(C)CCC2(C)C [Compound 52]?
A: IC50 (rat GnRH receptor; read-out: rGnRH IC50): 270 nM; IC50 (human GnRH receptor; read-out: hGnRH IC50): 280 nM; IC50 (bovine GnRH receptor; read-out: bGnRH IC50): 2900 nM; IC50 (mouse GnRH receptor; read-out: mGnRH IC50): 660 nM
